# According to patent US9809602B2, “Compounds for treating viral infections” (INSTITUT PASTEUR KOREA, priority 2014, dated 2017):
# pEC50: −log10 of the molar value.
# System: genotype 1/2 chimeric cell culture derived HCV (HCVcc)
# Test: Genotype 1/2 chimeric HCVcc assay (nano-luciferase, HCV replication)
# Assay type: cell-based
# Conditions: Hepatitis C virus
# Procedure: Naïve Huh-7.5 target cells were plated at 2400 cells/well in 25 μL of culture media in 384-well plates (Greiner bio-one, μ clear black). After overnight incubation, compounds serially diluted in 10 μL of cell culture media were added. After 2 h compound treatment, cells were inoculated with 40 μL of genotype 1/2 chimeric cell culture derived HCV (HCVcc) which express structural proteins of an HCV genotype 1a isolate (TN accession number EF621489) and non-structural proteins of HCV genotype 2a (JFH-1) with nano-luciferase reporter. At 72 h post infection, nano-luciferase activity (Nano-Glo™, Promega) and cellular ATP (Cell titer-Glo™, Promega) were measured as a marker for HCV replication and cytotoxicity, respectively. EC50 and CC50 were calculated by non-linear regression analyzing using GraphPad Prism (GraphPad Software).
row,Compound,pEC50
1,O=C(NCCCN1CCC(N2CCCCC2)CC1)c1ccc(-c2ccc(CN3CCOCC3)cc2)cc1 [Compound 1138],5.00 to 6.00
2,N#Cc1ccc(Oc2ccc(C(=O)NCCCN3CCC(N4CCCCC4)CC3)cc2)cc1 [Compound 1035],< 5.00
3,O=C(NCCCN1CCN(C2CCCCC2)CC1)c1ccc(Oc2ccccc2)cc1 [Compound 1037],< 5.00
4,CN(CCCN1CCC(N2CCCCC2)CC1)C(=O)c1ccc(Oc2ccccc2)cc1 [Compound 1047],5.00 to 6.00
5,O=C(NCCCN1CCC(N2CCCCC2)CC1)c1c(F)cc(-c2ccc(C(F)(F)F)cc2)cc1F [Compound 1106],6.00 to 7.00
6,O=S(=O)(NCCCN1CCC(N2CCCCC2)CC1)c1ccc(-c2ccc(C(F)(F)F)cc2)cc1 [Compound 1093],6.00 to 7.00
7,CN1CCN(C(=O)c2ccc(-c3ccc(C(=O)NCCCN4CCC(N5CCCCC5)CC4)cc3)cc2)CC1 [Compound 1151],< 5.00
8,O=C(CCCN1CCC(N2CCCCC2)CC1)Nc1ccc(-c2ccc(C(F)(F)F)cc2)nc1 [Compound 1116],6.00 to 7.00
9,O=C(NCCCN1CCC(N2CCCCC2)CC1)c1ccccc1-c1ccccc1 [Compound 1011],< 5.00
10,O=C(NCCCN1CCC(N2CCCCC2)CC1)c1ccc(Oc2cccc(C(F)(F)F)c2)cc1 [Compound 1108],6.00 to 7.00
11,CN(C)c1ccc(Oc2ccc(C(=O)NCCCN3CCC(N4CCCCC4)CC3)cc2)cc1 [Compound 1110],6.00 to 7.00
12,O=C(NCCCN1CCC(N2CCCCC2)CC1)c1ccc(N2CCCCC2)cc1 [Compound 1030],5.00 to 6.00
13,CN(C)C(=O)c1ccc(-c2ccc(C(=O)NCCCN3CCC(N4CCCCC4)CC3)cc2)cc1 [Compound 1120],< 5.00
14,NC(=O)c1ccc(-c2ccc(C(=O)NCCCN3CCC(N4CCCCC4)CC3)cc2)cc1 [Compound 1129],< 5.00
15,O=C(NCCCN1CCC(N2CCCCC2)CC1)c1ccc(Cc2ccccc2)cc1 [Compound 1012],6.00 to 7.00
16,O=C(NCCCN1CCC(N2CCCCC2)CC1)c1ccc(Oc2ccccc2)cc1 [Compound 1013],6.00 to 7.00
17,O=C(Nc1ccc(N2CCC(N3CCCCC3)CC2)cc1)c1ccc(Oc2ccccc2)cc1 [Compound 1048],5.00 to 6.00
18,O=C(NCCCN1CCC(N2CCCCC2)CC1)c1ccc(-c2ccc(C(F)(F)F)cc2)cn1 [Compound 1102],6.00 to 7.00
19,CN(C)c1ccc(-c2ccc(C(=O)NCCCN3CCC(N4CCCCC4)CC3)cc2)cc1 [Compound 1125],6.00 to 7.00
20,O=C(NCCCN1CCC(N2CCCCC2)CC1)c1ccc(-c2ccc3occc3c2)cc1 [Compound 1126],6.00 to 7.00
21,N#Cc1cccc(-c2ccc(C(=O)NCCCN3CCC(N4CCCCC4)CC3)cc2)c1 [Compound 1150],6.00 to 7.00
22,CC(C)(C)OC(=O)c1ccc(-c2ccc(C(=O)NCCCN3CCC(N4CCCCC4)CC3)cc2)cc1 [Compound 1139],6.00 to 7.00
23,O=C(NCCOCCN1CCC(N2CCCCC2)CC1)c1ccc(Oc2ccccc2)cc1 [Compound 1077],5.00 to 6.00
24,O=C(NCCCN1CCC(N2CCCCC2)CC1)c1ccc(-c2cccc(OC(F)(F)F)c2)cc1 [Compound 1145],6.00 to 7.00
25,CN(C)c1ccc(-c2ccc(C(=O)NCCCN3CCC(N4CCCCC4)CC3)c(Cl)c2)cc1 [Compound 1154],6.00 to 7.00
26,O=C(NCCCN1CCC(C2CCNCC2)CC1)c1ccc(Oc2ccccc2)cc1 [Compound 1072],5.00 to 6.00

# Same assay, conditions: Hepatitis C virus, Huh7.5, 72 h
row,Compound,pEC50
1,CCOC(=O)c1c(NC(=O)NCc2c(C(F)(F)F)sc3c2CCNC3)sc(C)c1C [Compound 132],> 7.00
2,CCOC(=O)c1c(NC(=O)NCc2c(C(F)(F)F)sc3c2CCN(C(=O)[C@@H](N)C(C)C)C3)sc2c1CCCC2 [Compound 345],> 7.00
3,CCOC(=O)c1c(NC(=S)NCc2c(-n3cccc3)sc3c2CCN(CC)C3)sc2c1CCCC2 [Compound 44],> 7.00
4,CCOC(=O)c1c(NC(=O)NCc2c(-n3cccc3)sc3c2CCN(C)C3)sc2c1CC(C)CC2 (stereo not drawn) [Compound 191],> 7.00
5,CC1CCCc2sc(NC(=O)NCc3c(Br)sc4c3CCNC4)c(C(=O)OC(C)(C)C)c21 (stereo not drawn) [Compound 290],> 7.00
6,C=CCCOC(=O)c1c(NC(=O)NCc2c(C(F)(F)F)sc3c2CCNC3)sc2c1CCCC2 [Compound 275],> 7.00
7,CC(C)(C)OC(=O)c1c(NC(=O)NCc2c(-c3ccnc(F)c3)sc3c2CCNC3)sc2c1CCCC2 [Compound 310],> 7.00
8,CC(C)(C)OC(=O)c1c(NC(=O)NCc2csc3c2CCNC3)sc2c1CCCC2 [Compound 124],> 7.00
9,Cc1c(CN(C)C)sc(C(F)(F)F)c1CNC(=O)Nc1sc2c(c1C(=O)OC(C)(C)C)CCCC2 [Compound 134],> 7.00
10,CCN1CCc2c(sc(-n3cccc3)c2CNC(=O)Nc2sc3c(c2C(=O)OC(C)(C)C)CC(C)CC3)C1 (stereo not drawn) [Compound 232],> 7.00
11,CCN1CCc2c(sc(-n3cccc3)c2CNC(=O)Nc2cccs2)C1 [Compound 15],< 5.00
12,CCOC(=O)c1c(NC(=O)NCc2c(-n3cccc3)sc3c2CCN(CC)C3)sc2c1CCN(C(C)=O)C2 [Compound 47],> 7.00
13,CCOC(=O)c1c(NC(=O)NCc2c(C(F)(F)F)sc3c2CCNC3)sc2c1CCC(C)C2 (stereo not drawn) [Compound 166],> 7.00
14,CC(C)(C)OC(=O)c1c(NC(=O)NCc2c(-c3ccsc3)sc3c2CCNC3)sc2c1CCCC2 [Compound 203],> 7.00
15,CC(C)(C)OC(=O)c1c(NC(=O)NCc2c(-c3ccc(O)cc3)sc3c2CCNC3)sc2c1CCCC2 [Compound 256],6.00 to 7.00
16,CCOC(=O)c1c(NC(=O)NCc2c(C(F)(F)F)sc3c2CCNC3)sc2c1CC(C)CC2C (stereo not drawn) [Compound 208],> 7.00
17,CCN1CCc2c(sc(Br)c2CNC(=O)Nc2sc3c(c2C(=O)OC(C)(C)C)CCCC3)C1 [Compound 111],> 7.00
18,CC(C)OC(=O)c1c(NC(=O)NCc2c(Br)sc3c2CC[N+](C)(C)C3)sc2c1CCCC2 [Compound 173],> 7.00
19,CCN1CCc2c(sc(-n3cccc3)c2CNC(=O)Nc2sc3c(c2C(=O)NNC(C)C)CCCC3)C1 [Compound 209],> 7.00
20,CCOC(=O)c1c(NC(=O)NCc2c(-n3cccc3)sc3c2CCN(CC)C3)sc2c1CC(C)CC2C (stereo not drawn) [Compound 205],> 7.00
21,CCN1CCc2c(sc(-n3cccc3)c2CNC(=O)Nc2sc3c(c2C(=O)O)CCCC3)C1 [Compound 16],< 5.00
22,CC(C)(C)OC(=O)c1c(NC(=O)NCc2c(-n3cccc3)sc3c2CCN(CCO)C3)sc2c1CCCC2 [Compound 258],> 7.00
23,CC(C)N1CCc2c(sc(Br)c2CNC(=O)Nc2sc3c(c2C(=O)OC(C)(C)C)CCCC3)C1 [Compound 187],> 7.00

row,Compound,pEC50
1,CC(C)(C)OC(=O)c1c(NC(=O)NCc2c(C(F)(F)F)sc3c2CCNC3)sc2c1CCC1(C2)OCCO1 [Compound 311],> 7.00
2,CCOC(=O)c1c(NC(=O)NCc2c(-n3cccc3)sc3c2CCN(CC)C3)sc2ccccc12 [Compound 34],6.00 to 7.00
3,CCOC(=O)c1c(NC(=O)NCc2c(Br)sc3c2CCNC3)sc2c1CCC(C)C2 (stereo not drawn) [Compound 165],> 7.00
4,CCOC(=O)c1c(NC(=O)NCc2cccc(CN(C)C)c2)sc2c1CCCC2 [Compound 102],6.00 to 7.00
5,CCOC(=O)c1c(NC(=O)NCc2c(Br)sc3c2CCNC3)sc2c1CC(C)CC2C (stereo not drawn) [Compound 207],> 7.00
6,CCOC(=O)c1sc2c(c1NC(=O)NCc1c(-n3cccc3)sc3c1CCN(CC)C3)CCCC2 [Compound 109],5.00 to 6.00
7,CCOC(=O)c1c(NC(=O)C(=O)NCc2c(-n3cccc3)sc3c2CCN(C(=O)OC(C)(C)C)C3)sc2c1CCCC2 [Compound 85],< 5.00
8,CC(C)(C)OC(=O)c1c(NC(=O)NCc2c(-c3ccc(F)cc3)sc3c2CCNC3)sc2c1CCCC2 [Compound 159],> 7.00
9,CCOC(=O)c1c(NC(=O)NCc2c(Br)sc3c2CCNC3)sc2c1CC(C)CC2 (stereo not drawn) [Compound 193],> 7.00
10,CCN1CCc2c(sc(C(F)(F)F)c2CNC(=O)Nc2sc3c(c2C(=O)OC(C)(C)C)CCC3)C1 [Compound 254],> 7.00
11,CCOC(=O)c1c(NC(=O)NCc2ccsc2)sc2c1CCCC2 [Compound 3],> 7.00
12,CCN1CCc2c(sc(C(F)(F)F)c2CNC(=O)Nc2sc3c(c2C(=O)OC(C)(C)C)CCCCC3)C1 [Compound 303],> 7.00
13,Cc1noc(-c2c(NC(=O)NCc3c(-n4cccc4)sc4c3CCNC4)sc3c2CCCC3)n1 [Compound 304],6.00 to 7.00
14,CCN1CCc2c(sc(-n3cccc3)c2CNC(=O)Nc2sc3c(c2C(=O)OC(C)(C)C)CCOC3)C1 [Compound 237],> 7.00
15,CN(C)CCN1CCc2c(sc(-c3cccc(F)c3)c2CNC(=O)Nc2sc3c(c2C(=O)OC(C)(C)C)CCCC3)C1 [Compound 359],> 7.00
16,CCOC(=O)c1c(NC(=O)NCc2c(-n3cccc3)sc3c2CCN(C)C3)sc2c1CC(C)CC2C (stereo not drawn) [Compound 206],> 7.00
17,CCN1CCc2c(sc(-n3cccc3)c2CNC(=O)Nc2sc3c(c2C(=O)OC(C)(C)C)CCCC3)C1 [Compound 14],> 7.00
18,Cc1sc(NC(=O)NCc2c(-c3ccoc3)sc3c2CCNC3)c(C(=O)OC(C)(C)C)c1C [Compound 332],> 7.00
19,Cc1sc(NC(=O)NCc2c(-c3cccc(Cl)c3)sc3c2CCNC3)c(C(=O)OC2CCOC2)c1C (stereo not drawn) [Compound 357],6.00 to 7.00
20,Cc1sc(NC(=O)NCc2c(-c3ccc(F)cc3)sc3c2CCNC3)c(C(=O)OC(C)(C)C)c1C [Compound 368],6.00 to 7.00
21,CC1CCc2sc(NC(=O)NCc3c(Br)sc4c3CCNC4)c(C(=O)OC(C)(C)C)c2C1 (stereo not drawn) [Compound 234],> 7.00
22,CCOC(=O)c1c(NC(=O)NCc2c(-n3cccc3)sc3c2CCN(C)C3)sc2c1CCCC2 [Compound 67],> 7.00
23,COc1sc2c(c1CNC(=O)Nc1sc3c(c1C(=O)OC(C)(C)C)CCCC3)CCNC2 [Compound 126],> 7.00
